From US4595698A, “Physiologically active substance, arphamenine and production thereof” (Zaidan Hojin Biseibutsu Kagaku Kenkyu Kai, priority 1982, dated 1986)
Like-named read-outs stand apart in the source and are kept apart here.

Tests used:
aminopeptidase B = molecular target: T1, aminopeptidase B (Rattus norvegicus, UniProt O09175); assay: Inhibition of aminopeptidase B (arginine-β-naphthylamide degradation, modified Hoppusu method); format: biochemical
T1 construct: an aminopeptidase B which had been purified with DEAE-Cellulose; from tissue
T1 sequence (O09175 1-650): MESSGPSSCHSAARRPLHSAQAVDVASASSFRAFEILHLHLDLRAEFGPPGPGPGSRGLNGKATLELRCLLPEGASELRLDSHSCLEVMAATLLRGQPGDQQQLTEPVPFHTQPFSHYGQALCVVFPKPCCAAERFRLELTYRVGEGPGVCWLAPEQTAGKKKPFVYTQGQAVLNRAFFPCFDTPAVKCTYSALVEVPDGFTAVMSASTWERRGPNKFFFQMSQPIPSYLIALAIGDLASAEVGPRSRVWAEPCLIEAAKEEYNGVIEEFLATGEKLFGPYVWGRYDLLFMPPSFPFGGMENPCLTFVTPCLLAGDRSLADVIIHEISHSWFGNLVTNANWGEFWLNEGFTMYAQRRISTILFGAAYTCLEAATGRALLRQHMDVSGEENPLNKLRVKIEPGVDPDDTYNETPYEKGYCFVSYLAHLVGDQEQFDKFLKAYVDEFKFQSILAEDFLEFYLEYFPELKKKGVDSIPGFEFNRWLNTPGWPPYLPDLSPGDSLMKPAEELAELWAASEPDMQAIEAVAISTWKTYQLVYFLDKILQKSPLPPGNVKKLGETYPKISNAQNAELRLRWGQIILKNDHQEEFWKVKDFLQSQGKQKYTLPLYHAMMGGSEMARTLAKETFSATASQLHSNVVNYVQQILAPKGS
Method: Tracing of arphamenine which was made during the course of cultivation of the arphamenine-producing strain, as well as during the course of recovery and purification of arphamenine was conducted by determining the anti-aminopeptidase B potency of arphamenine according to the following methods.
In detail, 0.5 ml of 0.1 M tris-hydrochloride buffer solution (pH 7.0) and 0.25 ml of a solution containing an arphamenine specimen were added to 0.25 ml of a substrate solution containing 0.002 M arginine-β-naphthylamide. The mixed solution so obtained was heated at 37° C. for 3 minutes. To the heated solution was added 5 μl of a solution of an aminopeptidase B which had been purified with DEAE-Cellulose according to the enzyme-purification technique of Hoppusu et al. The resulting mixture was reacted for 30 minutes at 37° C., and the resultant reaction mixture was admixed with 1 ml of 1.0 M acetate buffer solution (pH 4.2) containing Fast Garnet GBC (o-aminoazotoluene, diazonium salt) at a concentration of 1 mg/ml and a surfactant "Tween" 20 at a concentration of 10% to stop the enzyme reaction. After allowing the resulting mixture to stand at ambient temperature for 15 minutes, absorbance (a) at 525 nm of the reaction solution was measured. On the other hand, adsorbance (b) at 525 nm of a control reaction solution obtained from the blank test using the buffer solution containing no arphamenine was measured. Percent of inhibition to the aminopeptidase B was calculated from the equation [(b-a)/b]×100.

[1] = test system: cell-mediated immunity (D.T.H. to SRBC); assay: D.T.H. to SRBC in tumor-bearing (Sarcoma 180) mice, Test Example 2 (1); format: in vivo, CDF1 mice; conditions: for Increased thickness of footpad / T/C (%): 4 days; for T/C (%): control = 100
Method: The swelling degree on the footpad in mice was evaluated in the same way as in Test Example 1, except that the CDF1 mice employed for the test previously received an intraperitoneal inoculation of 10^6 Sarcoma 180 cells, and that arphamenine A was administered intraperitoneally once daily for 4 consecutive days, including the day of inoculation of SRBC, and two days after the administration, SRBC was given to the treated mice to elicit D.T.H. response.

[2] = test system: cell-mediated immunity (D.T.H. to picryl chloride); assay: D.T.H. to picryl chloride in mice bearing Ascites Sarcoma 180 tumor, Test Example 2 (2); format: in vivo, CDF1 mice; conditions: for Increased thickness of auricles / T/C (%): Table 4, 6 times/day, Day 1 to Day 8; for T/C (%): control = 100
Method: (2) D.T.H. to picryl chloride
In mice bearing Ascites Sarcoma 180 tumor, the effect of arphamenine A on D.T.H. to picryl chloride as antigen was investigated. Thus, 10^6 cells of Ascites Sarcoma 180 were transplanted intraperitoneally into CDF1 mice (12-week-old, female, 6 mice per group). The day of this transplantation was designated as Day 0. On Day 1, a shaved area (25 mm×15 mm) of the abdomen of the mice was immunized with 0.6 ml of a solution of 6% picryl chloride in ethanol which had been absorbed to a mass of cut absorbent cotton (20 mm×20 mm×2 mm in size). On Day 8, the thickness of the auricles of both ears was measured with a dial gauge to obtain a baseline value (a). Then, both auricles were elicited for the D.T.H. response with a solution of 1% picryl chloride in olive oil which had been absorbed to a mass of cut absorbent cotton (10 mm×4 mm×1 mm in size). On Day 9, the swelling degree on the elicited auricles was measured with a dial gauge to obtain a value (b). The baseline value (a) was subtracted from the value (b) to determine an increase in the thickness of the auricles (b-a) in the control group of mice (c).
Separately, 0.5, 0.05 or 0.005 mg/kg of the test compound dissolved in physiological saline was orally administered to another group of CDF1 mise 6 times/day for consecutive days of from Day 1 to Day 8 inclusive, and then the picryl chloride elicitation was carried out with the treated group of mice in the same way as in the control group of mice. The increase in the thickness of both auricles (b'-a') in this treated group of mice (T) was determined in the same way as the control group of mice.
The rate (T/C, %) of the increased thickness of auricles of the treated group (T) in term of that for the control group (c) was calculated from the following equation [formula]
Assumed that the value for the control group was evaluated to be 100%, the activity of the test compound to potentiate cell-mediated immunity was estimated.

[3] = test system: cell-mediated immunity (D.T.H. response to sheep red blood cells); assay: Delayed Type Hypersensitivity (D.T.H.) to SRBC in normal mice, Test Example 1; conditions: for Increased thickness of footpad / T/C (%): Table 1, single oral dose; for T/C (%): control = 100
Method: Effect of arphamenine on cell-mediated immunity in normal mice.
Effect of arphamenines A and B on the cell-mediated immunity was tested according to a known Delayed Type Hypersensitivity (D.T.H.) technique (see P. H. Lagrange, G. B. Mackaness and T. E. Miller: "J. Exp. Med.", 139, 1529~1539 (1974)) using mice immunized with sheep red blood cells (SRBC) as the antigen inoculated to the foot-pad pad of the mice.
Thus, 10^8 SRBC suspended in 0.05 ml of physiological saline was inoculated by subcutaneous injection to the one side of hind footpad of CDF1 mice (5 mice per group, female, 8-weeks old) to make immunization. At the time of this immunization, an aqueous solution containing 5 mg/kg, 0.5 mg/kg, 0.05 mg/kg or 0.005 mg/kg of arphamenine A or B was administered orally at a single dose to each test mice. 4 Days after the immunization, 10^8 SRBC in 0.05 ml of physiological saline was injected subcutaneously into the other side of the hind footpad of the test mice for elicitation of D.T.H. response. 24 Hours after the eliciting injection, the thickness (in mm) of the hind footpad having received the eliciting injection of SRBC was measured with calipers. At the same time, the thickness of the other side of footpad which had not received the eliciting injection of SRBC was also measured in each mouse.
The increase of footpad thickness (the swelling degree) was calculated by the following equation: [formula]
The effect of arphamenine on the DTH response was evaluated by the following equation: [formula]
Therefore, the assumption was here that the value for the control mice (untreated) was evaluated to be 100%.

mice = assay: Acute toxicity tests in mice by intravenous injection; format: in vivo; conditions: iv. dose of 250 mg/kg
Method: Acute toxicity tests in mice by intravenous injection have shown that no deaths are caused by arphamenine A in an iv. dose of 250 mg/kg or by arphamenine B in an iv. dose of 150 mg/kg. […] These new compounds are therefore useful as immunopotentiators and anti-tumor immunomodulators or as adjuvants to various chemotherapeutic agents for use in the treatment of carcinomas.

Ehrlich Solid Tumor = assay: Anti-tumor activity against Ehrlich Solid Tumor, Test Example 3; format: in vivo, ddY mice; conditions: for Average size of tumor / Average weight of tumor / TIR (%), tumor size / TIR (%), tumor weight: 7 times on alternate days, day 30
Method: Anti-tumor activity of arphamenine against Ehrlich Solid Tumor.
3×10^6 cells of Ehrlich ascites tumor were transplanted subcutaneously into the flank of ddY mice (8-week old, female, 5 mice per group). The day of this transplantation was designated as Day 0. Then, 0.5, 0.05 or 0.005 mg/kg of the test compound dissolved in physiological saline solution was orally administered to the mice a total of 7 times on alternate days until Day 15, beginning on Day 1. On day 30, the size (shorter diameter^2 ×longer diameter/2) of tumor and the weight of tumor were measured. The results in this treated group of mice were compared with those in the control group of mice to calculate tumor inhibition rate (TIR, %) according to the following equation: [formula] where C denotes the size or weight of tumor in the control group, and T denotes the size or weight of tumor in the treated group.

[4] = Table 3, fourth line, 0.005 mg/kg intraperitoneally once daily
[5] = Table 3, third line, 0.005 mg/kg (so in the source) intraperitoneally once daily
[6] = Table 3, 0.5 mg/kg intraperitoneally once daily
[7] = Table 3, 5 mg/kg intraperitoneally once daily

## N=C(N)NCCCC(N)C(=O)CC(Cc1ccccc1)C(=O)O (centres unmarked) [Arphamenine A]
Aminopeptidase B; colorless, pure powder, Examples 4 and 5, read-out: anti-aminopeptidase B potency, IC50 (converted)
  IC50: 16.9 nM
Aminopeptidase B; colorless, pure product, pH 7.0, 37° C., 30 minutes, read-out: IC50, dose giving 50% inhibition to the aminopeptidase B (converted)
  IC50: 15.6 nM
Aminopeptidase B; crude powder after CM-Sephadex C-25, Example 3, read-out: anti-aminopeptidase B potency, IC50 (converted)
  IC50: 20.3 nM
Aminopeptidase B; light yellow powder after Biogel P-2, Examples 8 and 9, read-out: anti-aminopeptidase B potency (IC50) (converted)
  IC50: 93.6 nM
[1]; [4]
  Increased thickness of footpad: 5.9 ± 0.79 × 0.1 mm
  T/C (%): 131%
[1]; [5]
  Increased thickness of footpad: 6.5 ± 1.29 × 0.1 mm
  T/C (%): 144%
[1]; [6]
  Increased thickness of footpad: 6.7 ± 1.03 × 0.1 mm
  T/C (%): 149%
[1]; [7]
  Increased thickness of footpad: 5.8 ± 1.19 × 0.1 mm
  T/C (%): 129%
[1]; tumor-bearing
  cell-mediated immunity depressed by the tumor (in words): modulate the cell-mediated immunity depressed by the tumor
[2]; 0.05 mg/kg
  activity to enhance cell-mediated immunity (in words): a significant activity to enhance cell-mediated immunity was obtained
[2]; 0.005 mg/kg orally
  Increased thickness of auricles: 6.40 ± 0.63 × 0.1 mm
  T/C (%): 143.8%
[2]; 0.05 mg/kg orally, *P <0.05
  Increased thickness of auricles: 7.40 ± 0.72 × 0.1 mm
[2]; 0.05 mg/kg orally
  T/C (%): 166.3%
[2]; 0.5 mg/kg orally
  Increased thickness of auricles: 6.05 ± 0.97 × 0.1 mm
  T/C (%): 136.0%
[3]; 0.005 mg/kg
  Increased thickness of footpad: 11.9 ± 1.00 × 0.1 mm
  T/C (%): 143%
[3]; 0.05 mg/kg
  Increased thickness of footpad: 13.0 ± 0.97 × 0.1 mm
  T/C (%): 157%
[3]; 0.5 mg/kg
  Increased thickness of footpad: 11.5 ± 1.29 × 0.1 mm
  T/C (%): 139%
[3]; 5 mg/kg
  Increased thickness of footpad: 10.4 ± 0.77 × 0.1 mm
  T/C (%): 125%
[3]; normal animals
  cell-mediated immunity in normal animals (in words): potentiate the cell-mediated immunity in normal animals
mice
  deaths, acute toxicity: no deaths
Ehrlich Solid Tumor; 0.005 mg/kg orally
  Average size of tumor: 2378 ± 3138 mm^3
  Average weight of tumor: 1.62 ± 1.44 g
  TIR (%), tumor size: 55.2%
  TIR (%), tumor weight: 39.3%
Ehrlich Solid Tumor; 0.05 mg/kg orally
  TIR (%), tumor size: 41.2%
  TIR (%), tumor weight: 37.8%
Ehrlich Solid Tumor; 0.05 mg/kg orally, **P < 0.05 (Ttest)
  Average weight of tumor: 1.66 ± 1.50 g
Ehrlich Solid Tumor; 0.05 mg/kg orally, *P < 0.1 (Ttest)
  Average size of tumor: 3120 ± 3584 mm^3
Ehrlich Solid Tumor; 0.5 mg/kg orally
  Average size of tumor: 4467 ± 4311 mm^3
  Average weight of tumor: 2.62 ± 1.90 g
  TIR (%), tumor size: 15.8%
  TIR (%), tumor weight: 1.9%
Ehrlich Solid Tumor; 0.05 and 0.005 mg/kg
  host-mediated anti-tumor effect in terms of tumor size and tumor weight (in words): produced a host-mediated anti-tumor effect
Ehrlich Solid Tumor; summary statement
  host-mediated anti-tumor effect (in words): exhibit a host-mediated anti-tumor effect
